In ChEMBL document CHEMBL1136842, “5-Nitrofuran-2-yl derivatives: synthesis and inhibitory activities against growing and dormant mycobacterium species” (Bioorg Med Chem Lett, 2009):
In brackets after ≈: the same amount, converted by molar mass.

tested on: Mycobacterium tuberculosis variant microti; experiment: Antimycobacterial activity against Mycobacterium microti MTCC 1727 by agar dilution method; assay type: functional

Q: How did the MIC turn out when `O=[N+]([O-])c1ccc(/C=N/NC(=S)Nc2ccc(Cl)cn2)o1` was run?
A: 38.3 µM (≈ 12.5 µg/mL)

Q: How did the MIC turn out when `Cc1cc(C)nc(NC(=S)N/N=C/c2ccc([N+](=O)[O-])o2)c1` was run?
A: 39.1 µM (≈ 12.5 µg/mL)

Q: For `Cc1ccc(NC(=S)N/N=C/c2ccc([N+](=O)[O-])o2)c(C)c1`, which MIC is on record?
A: 78.5 µM (≈ 25 µg/mL)

Q: `O=[N+]([O-])c1ccc(/C=N/NC(=S)Nc2ccccc2Br)o1` was tested. Which MIC did it give?
A: 67.1 µM (≈ 24.8 µg/mL)

Q: Which MIC does the source give for `O=[N+]([O-])c1ccc(/C=N/NC(=S)Nc2ccccn2)o1` here?
A: 48.4 µM (≈ 14.1 µg/mL)

Q: `NNC(=O)c1ccncc1` [ISONIAZID] was tested. Which MIC did it give?
A: 22.8 µM (≈ 3.13 µg/mL)

Q: With `Cc1cccc(C)c1NC(=S)N/N=C/c1ccc([N+](=O)[O-])o1` as the molecule, how does the MIC read?
A: 78.5 µM (≈ 25 µg/mL)

Q: Which MIC does the source give for `Cc1cccnc1NC(=S)N/N=C/c1ccc([N+](=O)[O-])o1` here?
A: 10.2 µM (≈ 3.11 µg/mL)

Q: Which MIC does the source give for `COc1ccc(NC(=S)N/N=C/c2ccc([N+](=O)[O-])o2)cc1` here?
A: 78 µM (≈ 25 µg/mL)

Q: Which MIC does the source give for `CCc1cccc(CC)c1NC(=S)N/N=C/c1ccc([N+](=O)[O-])o1` here?
A: 72.1 µM (≈ 25 µg/mL)

Q: How did the MIC turn out when `O=[N+]([O-])c1ccc(/C=N/NC(=S)Nc2ccc(Cl)cc2)o1` was run?
A: 38.4 µM (≈ 12.5 µg/mL)

Q: For `Cc1ccc(NC(=S)N/N=C/c2ccc([N+](=O)[O-])o2)cc1`, which MIC is on record?
A: 20.5 µM (≈ 6.24 µg/mL)

Q: For `O=[N+]([O-])c1ccc(/C=N/NC(=S)Nc2ncc(Br)cc2Br)o1`, which MIC is on record?
A: 6.9 µM (≈ 3.1 µg/mL)

Q: With `O=[N+]([O-])c1ccc(/C=N/NC(=S)Nc2ccccc2)o1` as the molecule, how does the MIC read?
A: 86.1 µM (≈ 25 µg/mL)

Q: How did the MIC turn out when `Cc1ccnc(NC(=S)N/N=C/c2ccc([N+](=O)[O-])o2)c1` was run?
A: 20.5 µM (≈ 6.26 µg/mL)

Q: How did the MIC turn out when `CO[C@H]1/C=C/O[C@@]2(C)Oc3c(C)c(O)c4c(O)c(c(/C=N/N5CCN(C)CC5)c(O)c4c3C2=O)NC(=O)/C(C)=C\C=C\[C@H](C)[C@H](O)[C@@H](C)[C@@H](O)[C@@H](C)[C@H](OC(C)=O)[C@@H]1C` [RIFAMPIN] was run?
A: 30.4 µM (≈ 25 µg/mL)

Q: `O=C(O)c1cn(C2CC2)c2cc(N3CCNCC3)c(F)cc2c1=O` [CIPROFLOXACIN] was tested. Which MIC did it give?
A: 2.35 µM (≈ 0.779 µg/mL)

Q: For `Cc1ccc(C)c(NC(=S)N/N=C/c2ccc([N+](=O)[O-])o2)c1`, which MIC is on record?
A: 157 µM (≈ 50 µg/mL)

Q: With `NS(=O)(=O)c1ccc(NC(=S)N/N=C/c2ccc([N+](=O)[O-])o2)cc1` as the molecule, how does the MIC read?
A: 67.6 µM (≈ 25 µg/mL)

Q: Which MIC does the source give for `COc1ccc(NC(=S)N/N=C/c2ccc([N+](=O)[O-])o2)c(OC)c1` here?
A: 17.8 µM (≈ 6.24 µg/mL)
